# Data taken from paper PMC11842588, “A first-in-class selective inhibitor of ERK1/2 and ERK5 overcomes drug resistance with a single-molecule strategy” (Signal Transduction and Targeted Therapy, 2025).
# Legend:
# Test in all cases: Kinase profiling
# Type in all cases: biochemical
# [1] = target: T1, CDKL2(h) (Homo sapiens, UniProt Q92772)
# T1 construct: purchased Eurofins Cerep SA (KinaseProfiler)
# Procedure: (§1) 380 kinases inhibitory activities of SKLB-D18 were conducted by Eurofins Cerep SA. The result was illustrated by kinase tree (http://www.kinhub.org/kinmap/).
# [2] = target: T2, TAO2(h) (Homo sapiens, UniProt Q9UL54)
# T2 construct: purchased Eurofins Cerep SA (KinaseProfiler)
# Procedure: as §1
# [3] = target: T3, NEK2(h) (Homo sapiens, UniProt P51955)
# T3 construct: purchased Eurofins Cerep SA (KinaseProfiler)
# T3 sequence (P51955 whole entry): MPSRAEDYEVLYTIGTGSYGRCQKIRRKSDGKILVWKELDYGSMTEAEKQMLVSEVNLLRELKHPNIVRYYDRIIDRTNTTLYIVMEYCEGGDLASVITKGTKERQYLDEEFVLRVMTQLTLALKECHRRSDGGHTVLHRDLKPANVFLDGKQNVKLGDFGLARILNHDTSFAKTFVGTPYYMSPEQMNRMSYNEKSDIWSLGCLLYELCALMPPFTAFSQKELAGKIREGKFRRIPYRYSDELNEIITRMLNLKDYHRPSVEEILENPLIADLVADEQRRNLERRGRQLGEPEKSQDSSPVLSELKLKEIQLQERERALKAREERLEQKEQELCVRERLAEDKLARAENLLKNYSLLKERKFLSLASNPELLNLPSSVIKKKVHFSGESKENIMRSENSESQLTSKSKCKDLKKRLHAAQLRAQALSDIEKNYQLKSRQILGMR
# Procedure: as §1
# [4] = target: T4, NDR2(h) (Homo sapiens, UniProt Q9Y2H1)
# T4 construct: purchased Eurofins Cerep SA (KinaseProfiler)
# Procedure: as §1
# [5] = target: T5, Aurora-B(h) (Homo sapiens, UniProt Q96GD4)
# T5 construct: purchased Eurofins Cerep SA (KinaseProfiler)
# Procedure: as §1
# [6] = target: T6, TSSK1(h) (Homo sapiens, UniProt Q9BXA7)
# T6 construct: purchased Eurofins Cerep SA (KinaseProfiler)
# Procedure: as §1
# [7] = target: T7, Syk(h) (Homo sapiens, UniProt P43405)
# T7 construct: purchased Eurofins Cerep SA (KinaseProfiler)
# Procedure: as §1
# [8] = target: T8, LATS2(h) (Homo sapiens, UniProt Q9NRM7)
# T8 construct: purchased Eurofins Cerep SA (KinaseProfiler)
# Procedure: as §1
# [9] = target: T9, Met(h) (Homo sapiens, UniProt P08581)
# T9 construct: purchased Eurofins Cerep SA (KinaseProfiler)
# Procedure: as §1
# [10] = target: T10, SRMS(h) (Homo sapiens, UniProt Q9H3Y6)
# T10 construct: purchased Eurofins Cerep SA (KinaseProfiler)
# Procedure: as §1
# [11] = target: T11, MLCK(h) (Homo sapiens, UniProt Q9H1R3)
# T11 construct: purchased Eurofins Cerep SA (KinaseProfiler)
# Procedure: as §1
# [12] = target: T12, PI3 Kinase (p110d/p85a)(h) (Homo sapiens, UniProt O00329)
# T12 construct: purchased Eurofins Cerep SA (KinaseProfiler)
# Procedure: as §1
# [13] = target: T13, Mnk1(h) (Homo sapiens, UniProt Q9BUB5)
# T13 construct: purchased Eurofins Cerep SA (KinaseProfiler)
# T13 sequence (Q9BUB5 whole entry): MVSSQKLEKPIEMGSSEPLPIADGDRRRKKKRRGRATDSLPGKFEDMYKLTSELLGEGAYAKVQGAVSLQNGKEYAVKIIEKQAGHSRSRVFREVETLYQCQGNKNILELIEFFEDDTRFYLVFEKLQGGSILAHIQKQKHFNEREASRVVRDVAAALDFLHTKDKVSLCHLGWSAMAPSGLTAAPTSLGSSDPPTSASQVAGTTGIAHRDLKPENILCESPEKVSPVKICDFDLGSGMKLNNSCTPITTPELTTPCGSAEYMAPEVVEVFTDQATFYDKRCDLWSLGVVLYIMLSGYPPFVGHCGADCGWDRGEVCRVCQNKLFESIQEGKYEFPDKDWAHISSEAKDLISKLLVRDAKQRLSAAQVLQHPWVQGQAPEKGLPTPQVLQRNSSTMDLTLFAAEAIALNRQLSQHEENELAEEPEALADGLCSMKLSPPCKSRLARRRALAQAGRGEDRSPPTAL
# Procedure: as §1
# [14] = target: T14, PRKG2(h) (Homo sapiens, UniProt Q13237)
# T14 construct: purchased Eurofins Cerep SA (KinaseProfiler)
# Procedure: as §1
# [15] = target: T15, VRK2(h) (Homo sapiens, UniProt Q86Y07)
# T15 construct: purchased Eurofins Cerep SA (KinaseProfiler)
# Procedure: as §1
# [16] = target: T16, EphB4(h) (Homo sapiens, UniProt P54760)
# T16 construct: purchased Eurofins Cerep SA (KinaseProfiler)
# Procedure: as §1
# [17] = target: T17, CK1γ2(h) (Homo sapiens, UniProt P78368)
# T17 construct: purchased Eurofins Cerep SA (KinaseProfiler)
# Procedure: as §1
# [18] = target: T18, MARK3(h) (Homo sapiens, UniProt P27448)
# T18 construct: purchased Eurofins Cerep SA (KinaseProfiler)
# Procedure: as §1
# [19] = target: T19, MAK(h) (Homo sapiens, UniProt P20794)
# T19 construct: purchased Eurofins Cerep SA (KinaseProfiler)
# T19 sequence (P20794 whole entry): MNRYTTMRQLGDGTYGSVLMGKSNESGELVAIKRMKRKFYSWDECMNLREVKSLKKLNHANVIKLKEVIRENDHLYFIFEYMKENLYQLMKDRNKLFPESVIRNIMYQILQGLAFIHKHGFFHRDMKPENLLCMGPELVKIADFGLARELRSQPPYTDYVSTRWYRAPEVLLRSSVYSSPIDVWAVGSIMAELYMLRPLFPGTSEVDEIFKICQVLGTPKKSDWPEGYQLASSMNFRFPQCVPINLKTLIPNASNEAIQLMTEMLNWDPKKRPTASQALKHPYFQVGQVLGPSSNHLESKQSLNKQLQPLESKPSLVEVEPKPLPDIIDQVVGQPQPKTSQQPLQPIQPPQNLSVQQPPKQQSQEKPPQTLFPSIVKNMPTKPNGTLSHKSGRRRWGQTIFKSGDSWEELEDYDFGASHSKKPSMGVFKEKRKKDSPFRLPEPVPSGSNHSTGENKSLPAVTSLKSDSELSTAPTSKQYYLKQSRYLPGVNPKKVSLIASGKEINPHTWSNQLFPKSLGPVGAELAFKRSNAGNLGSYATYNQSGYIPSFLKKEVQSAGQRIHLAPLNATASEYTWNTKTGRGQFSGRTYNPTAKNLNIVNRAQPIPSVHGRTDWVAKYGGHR
# Procedure: as §1
# [20] = target: T20, Lck(h) activated (Homo sapiens, UniProt P06239)
# T20 construct: purchased Eurofins Cerep SA (KinaseProfiler)
# Procedure: as §1
# [21] = target: T21, BRK(h) (Homo sapiens, UniProt Q13882)
# T21 construct: purchased Eurofins Cerep SA (KinaseProfiler)
# Procedure: as §1
# [22] = target: T22, WNK3(h) (Homo sapiens, UniProt Q9BYP7)
# T22 construct: purchased Eurofins Cerep SA (KinaseProfiler)
# Procedure: as §1
# [23] = target: T23, Wee1(h) (Homo sapiens, UniProt P30291)
# T23 construct: purchased Eurofins Cerep SA (KinaseProfiler)
# T23 sequence (P30291 whole entry): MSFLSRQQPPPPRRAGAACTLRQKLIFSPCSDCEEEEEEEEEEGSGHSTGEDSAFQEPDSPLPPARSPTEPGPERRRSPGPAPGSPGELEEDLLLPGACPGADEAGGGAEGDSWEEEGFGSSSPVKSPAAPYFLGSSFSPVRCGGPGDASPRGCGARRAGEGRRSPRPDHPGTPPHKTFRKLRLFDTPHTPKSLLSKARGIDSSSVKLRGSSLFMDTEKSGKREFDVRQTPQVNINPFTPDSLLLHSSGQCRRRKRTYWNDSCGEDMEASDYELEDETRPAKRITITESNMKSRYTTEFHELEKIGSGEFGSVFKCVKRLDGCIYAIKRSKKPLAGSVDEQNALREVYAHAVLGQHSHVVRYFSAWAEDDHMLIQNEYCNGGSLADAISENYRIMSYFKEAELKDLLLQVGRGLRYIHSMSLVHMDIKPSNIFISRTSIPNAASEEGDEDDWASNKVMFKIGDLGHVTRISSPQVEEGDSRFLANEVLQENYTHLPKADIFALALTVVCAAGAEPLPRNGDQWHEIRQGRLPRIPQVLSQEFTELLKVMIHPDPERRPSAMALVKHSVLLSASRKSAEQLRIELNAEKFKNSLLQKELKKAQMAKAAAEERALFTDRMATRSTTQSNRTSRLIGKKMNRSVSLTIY
# Procedure: as §1
# [24] = target: T24, GRK7(h) (Homo sapiens, UniProt Q8WTQ7)
# T24 construct: purchased Eurofins Cerep SA (KinaseProfiler)
# Procedure: as §1
# [25] = target: T25, ULK1(h) (Homo sapiens, UniProt O75385)
# T25 construct: purchased Eurofins Cerep SA (KinaseProfiler)
# Procedure: as §1
# [26] = target: T26, IKKα(h) (Homo sapiens, UniProt O15111)
# T26 construct: purchased Eurofins Cerep SA (KinaseProfiler)
# Procedure: as §1
# [27] = target: T27, p70S6Kβ(h) (Homo sapiens, UniProt Q9UBS0)
# T27 construct: purchased Eurofins Cerep SA (KinaseProfiler)
# Procedure: as §1
# [28] = target: T28, HPK1(h) (Homo sapiens, UniProt Q92918)
# T28 construct: purchased Eurofins Cerep SA (KinaseProfiler)
# Procedure: as §1
# [29] = target: T29, GRK2(h) (Homo sapiens, UniProt P25098)
# T29 construct: purchased Eurofins Cerep SA (KinaseProfiler)
# Procedure: as §1
# [30] = target: T30, SAPK3(h) (Homo sapiens, UniProt P53778)
# T30 construct: purchased Eurofins Cerep SA (KinaseProfiler)
# Procedure: as §1
# [31] = target: T31, CK1γ3(h) (Homo sapiens, UniProt Q9Y6M4)
# T31 construct: purchased Eurofins Cerep SA (KinaseProfiler)
# Procedure: as §1
# [32] = target: T32, CDKL1(h) (Homo sapiens, UniProt Q00532)
# T32 construct: purchased Eurofins Cerep SA (KinaseProfiler)
# Procedure: as §1
# [33] = target: T33, CDKL4(h) (Homo sapiens, UniProt Q5MAI5)
# T33 construct: purchased Eurofins Cerep SA (KinaseProfiler)
# Procedure: as §1
# [34] = target: T34, SBK1(h) (Homo sapiens, UniProt Q52WX2)
# T34 construct: purchased Eurofins Cerep SA (KinaseProfiler)
# Procedure: as §1
# [35] = target: T35, MKK6(h) (Homo sapiens, UniProt P52564)
# T35 construct: purchased Eurofins Cerep SA (KinaseProfiler)
# Procedure: as §1
# [36] = target: T36, DAPK1(h) (Homo sapiens, UniProt P53355)
# T36 construct: purchased Eurofins Cerep SA (KinaseProfiler)
# T36 sequence (P53355 whole entry): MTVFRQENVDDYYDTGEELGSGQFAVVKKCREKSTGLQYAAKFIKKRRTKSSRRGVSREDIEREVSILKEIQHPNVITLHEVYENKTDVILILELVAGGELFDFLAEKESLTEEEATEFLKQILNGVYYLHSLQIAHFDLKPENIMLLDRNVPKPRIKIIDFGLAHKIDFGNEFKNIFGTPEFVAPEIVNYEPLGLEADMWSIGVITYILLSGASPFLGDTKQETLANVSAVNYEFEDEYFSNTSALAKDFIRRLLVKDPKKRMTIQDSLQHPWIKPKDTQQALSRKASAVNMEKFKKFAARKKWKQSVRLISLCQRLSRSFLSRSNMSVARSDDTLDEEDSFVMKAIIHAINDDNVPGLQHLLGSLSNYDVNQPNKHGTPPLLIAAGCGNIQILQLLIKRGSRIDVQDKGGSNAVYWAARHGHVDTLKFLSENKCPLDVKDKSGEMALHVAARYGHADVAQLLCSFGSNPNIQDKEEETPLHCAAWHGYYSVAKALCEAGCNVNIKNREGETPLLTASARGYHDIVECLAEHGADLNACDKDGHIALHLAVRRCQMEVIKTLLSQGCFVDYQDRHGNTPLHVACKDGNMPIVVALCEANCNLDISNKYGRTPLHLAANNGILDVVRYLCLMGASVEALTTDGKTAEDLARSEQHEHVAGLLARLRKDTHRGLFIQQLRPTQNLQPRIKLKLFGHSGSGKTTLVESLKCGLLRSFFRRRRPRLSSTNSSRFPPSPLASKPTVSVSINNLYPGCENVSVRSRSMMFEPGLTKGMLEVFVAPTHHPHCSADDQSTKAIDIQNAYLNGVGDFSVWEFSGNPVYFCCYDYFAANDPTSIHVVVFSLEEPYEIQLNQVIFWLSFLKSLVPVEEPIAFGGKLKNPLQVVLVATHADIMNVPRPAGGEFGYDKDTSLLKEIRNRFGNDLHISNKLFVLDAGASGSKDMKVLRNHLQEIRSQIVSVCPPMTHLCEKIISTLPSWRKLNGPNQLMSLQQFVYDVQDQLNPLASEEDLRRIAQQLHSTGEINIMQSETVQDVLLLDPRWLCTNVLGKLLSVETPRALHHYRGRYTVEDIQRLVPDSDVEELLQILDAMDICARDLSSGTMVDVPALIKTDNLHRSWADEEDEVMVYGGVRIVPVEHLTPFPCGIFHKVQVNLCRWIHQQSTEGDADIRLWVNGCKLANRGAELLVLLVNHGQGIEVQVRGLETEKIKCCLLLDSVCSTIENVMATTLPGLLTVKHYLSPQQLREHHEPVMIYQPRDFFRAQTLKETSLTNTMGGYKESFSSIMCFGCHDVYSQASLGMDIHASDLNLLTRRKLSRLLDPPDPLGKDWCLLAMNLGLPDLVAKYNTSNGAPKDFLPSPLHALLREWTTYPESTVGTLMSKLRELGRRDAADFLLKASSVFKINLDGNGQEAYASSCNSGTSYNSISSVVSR
# Procedure: as §1
# [37] = target: T37, PKCμ(h) (Homo sapiens, UniProt Q15139)
# T37 construct: purchased Eurofins Cerep SA (KinaseProfiler)
# Procedure: as §1
# [38] = target: T38, MST4(h) (Homo sapiens, UniProt Q9P289)
# T38 construct: purchased Eurofins Cerep SA (KinaseProfiler)
# Procedure: as §1
# [39] = target: T39, Haspin(h) (Homo sapiens, UniProt Q8TF76)
# T39 construct: purchased Eurofins Cerep SA (KinaseProfiler)
# T39 sequence (Q8TF76 whole entry): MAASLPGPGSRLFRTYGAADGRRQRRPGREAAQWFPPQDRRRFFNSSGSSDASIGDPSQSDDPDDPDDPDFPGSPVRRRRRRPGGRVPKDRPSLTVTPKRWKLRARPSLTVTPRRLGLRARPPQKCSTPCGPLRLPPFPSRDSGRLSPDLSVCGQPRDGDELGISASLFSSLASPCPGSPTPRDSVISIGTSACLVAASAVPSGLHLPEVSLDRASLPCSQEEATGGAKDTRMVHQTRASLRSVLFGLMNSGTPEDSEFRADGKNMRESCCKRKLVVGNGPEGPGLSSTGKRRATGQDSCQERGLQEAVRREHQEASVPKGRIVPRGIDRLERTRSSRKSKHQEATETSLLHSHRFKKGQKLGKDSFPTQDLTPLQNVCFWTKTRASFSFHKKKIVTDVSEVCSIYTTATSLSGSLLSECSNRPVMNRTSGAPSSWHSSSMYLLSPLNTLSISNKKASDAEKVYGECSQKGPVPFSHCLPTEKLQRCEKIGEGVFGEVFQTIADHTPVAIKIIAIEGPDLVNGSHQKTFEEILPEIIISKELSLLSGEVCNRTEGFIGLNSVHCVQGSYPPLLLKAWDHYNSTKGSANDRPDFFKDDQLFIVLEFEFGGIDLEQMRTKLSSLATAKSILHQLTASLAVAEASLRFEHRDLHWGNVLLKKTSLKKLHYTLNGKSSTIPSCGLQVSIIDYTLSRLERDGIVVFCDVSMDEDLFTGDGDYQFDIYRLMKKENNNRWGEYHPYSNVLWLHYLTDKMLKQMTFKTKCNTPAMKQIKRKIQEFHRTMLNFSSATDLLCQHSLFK
# Procedure: as §1
# [40] = target: T40, CaMKIγ(h) (Homo sapiens, UniProt Q96NX5)
# T40 construct: purchased Eurofins Cerep SA (KinaseProfiler)
# T40 sequence (Q96NX5 whole entry): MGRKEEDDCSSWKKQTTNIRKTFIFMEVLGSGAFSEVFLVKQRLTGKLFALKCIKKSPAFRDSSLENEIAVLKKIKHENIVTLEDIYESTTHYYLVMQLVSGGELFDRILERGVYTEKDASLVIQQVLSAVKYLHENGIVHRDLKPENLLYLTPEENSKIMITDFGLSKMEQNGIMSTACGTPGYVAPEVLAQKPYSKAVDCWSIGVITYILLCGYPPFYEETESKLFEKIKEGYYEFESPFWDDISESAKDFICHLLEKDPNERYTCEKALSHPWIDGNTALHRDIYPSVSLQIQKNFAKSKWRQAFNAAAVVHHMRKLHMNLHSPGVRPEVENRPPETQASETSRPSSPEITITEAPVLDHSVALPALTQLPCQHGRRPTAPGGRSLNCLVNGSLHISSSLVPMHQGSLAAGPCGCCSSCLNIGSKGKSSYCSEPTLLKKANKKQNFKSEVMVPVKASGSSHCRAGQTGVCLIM
# Procedure: as §1
# [41] = target: T41, BTK(h) (Homo sapiens, UniProt Q06187)
# T41 construct: purchased Eurofins Cerep SA (KinaseProfiler)
# Procedure: as §1
smiles,measurement,setting,value
"CN(C)Cc1cccc(Nc2ncc(Cl)c(-c3csc(C(=O)NN4CCOCC4)c3)n2)c1 [SKLB-D18, 4-(5-chloro-2-((3-((dimethylamino)methyl)phenyl)amino)pyrimidin-4-yl)-N-morpholinothiophene-2-carboxamide]",inhibition at 1 µM,[1],39%
same,inhibition at 1 µM,[2],64%
same,inhibition at 1 µM,[3],42%
same,inhibition at 1 µM,[4],27%
same,inhibition at 1 µM,[5],66%
same,inhibition at 1 µM,[6],60%
same,inhibition at 1 µM,[7],38%
same,inhibition at 1 µM,[8],37%
same,inhibition at 1 µM,[9],61%
same,inhibition at 1 µM,[10],11%
same,inhibition at 1 µM,[11],16%
same,inhibition at 1 µM,[12],0%
same,inhibition at 1 µM,[13],62%
same,inhibition at 1 µM,[14],18%
same,inhibition at 1 µM,[15],-3%
same,inhibition at 1 µM,[16],9%
same,inhibition at 1 µM,[17],18%
same,inhibition at 1 µM,[18],68%
same,inhibition at 1 µM,[19],46%
same,inhibition at 1 µM,[20],68%
same,inhibition at 1 µM,[21],32%
same,inhibition at 1 µM,[22],9%
same,inhibition at 1 µM,[23],48%
same,inhibition at 1 µM,[24],5%
same,inhibition at 1 µM,[25],49%
same,inhibition at 1 µM,[26],34%
same,inhibition at 1 µM,[27],15%
same,inhibition at 1 µM,[28],68%
same,inhibition at 1 µM,[29],3%
same,inhibition at 1 µM,[30],25%
same,inhibition at 1 µM,[31],14%
same,inhibition at 1 µM,[32],48%
same,inhibition at 1 µM,[33],66%
same,inhibition at 1 µM,[34],55%
same,inhibition at 1 µM,[35],5%
same,inhibition at 1 µM,[36],67%
same,inhibition at 1 µM,[37],64%
same,inhibition at 1 µM,[38],15%
same,inhibition at 1 µM,[39],12%
same,inhibition at 1 µM,[40],12%
same,inhibition at 1 µM,[41],8%
